Data from patent US11168106B1, “Synthesis and stabilization of nicotinamide ribose and its derivatives” (priority 2017, dated 2021).

Tests used:
[1] = Decomposition of nicotinamide ribose in water with and without borate, HPTLC read at 254 nm; format: physicochemical; conditions: for Area [%] of assigned substance, decomposition of nicotinamide ribose with borate: boric acid added in 1:1 molar ratio, in water; for Area [%] of assigned substance, decomposition of nicotinamide ribose with borate / Area [%] of assigned substance, decomposition of nicotinamide ribose without borate: water bath 65° C., 8 h, HPTLC at 254 nm; for Area [%] of assigned substance, decomposition of nicotinamide ribose without borate: 1 mg/mL in water
Experimental: Nicotinamide riboside (NR) as its chloride salt was used at 100 mM. Boric acid: was used at 300 mM. All samples were prepared in water. This, 1 mg/mL of nicotinamide riboside of capsule content was weighed in a 25 mL volumetric flask. Water was added to 25 mL total volume. For the reaction in the presence of boric acid, the same was done with boric acid added in a 1:1 molar ratio. In either case, 5 mL of each solution prepared was placed in the water bath at 65° C. A control was incubated at room temperature. After incubation for 8 h, 2 μL of each solution (heated and not heated) are placed on the HPTLC plate. The plate is eluted in the following mobile phase: ethanol, ammonium acetate 1 M (7:3). The plate is read at 254 nm to obtain the respective peaks.

NAD = conditions: healthy middle-aged and older adults, cited from earlier work

Row | SMILES | Area [%] of assigned substance, decomposition of nicotinamide ribose with borate [1] [%] | Area [%] of assigned substance, decomposition of nicotinamide ribose without borate [1] [%] | Effect on NAD level (NAD; chronic supplementation) | Tolerability of chronic supplementation (NAD) | Stabilization with respect to decomposition ([1]; boric acid vs no boric acid (FIG. 3 and FIG. 4))
1 | NC(=O)c1cccnc1 [Nicotinamide] | 13.92 | 29.8122 | – | – | –
2 | NC(=O)c1ccc[n+]([C@@H]2O[C@H](CO)[C@@H](O)[C@H]2O)c1 [Nicotinamide riboside] | 86.08 | 70.1878 | elevates NAD | well-tolerated | stabilized by boric acid
